Laboratory results published in US20220389019A1, “TrkB POSITIVE ALLOSTERIC MODULATORS” (Université de Strasbourg, priority 2019, published 2022).

What was measured:
TrkB [1] = biological target: TrkB (Mus musculus, UniProt P15209); settings: C57BL/6 male mice, 0.5 and 1 mg/kg i.p., 1 h, cortex and hippocampus, western blot
Description: After 1 hour (unless indicated otherwise), mice were decapitated, blood was collected and brains were rapidly removed on ice. […] The Anti-TrkB antibody is used to quantify the total amount of TrkB. Anti-tubulin is used as a loading control. […] Phosphorylated levels of TrkB are calculated as a ratio between phospho and total TrkB bands in each region
A volume of 10 μl/g body weight was injected. After 1 hour (unless indicated otherwise), mice were decapitated, blood was collected and brains were rapidly removed on ice. Cortex and hippocampus were subsequently dissected and tissues were rapidly washed in ice-cold PBS and transferred into ice-cold solubilization buffer before homogenization at 4° C. Samples were centrifuged at 10,000×g for 10 min at 4° C. Protein concentrations were determined, equal amounts of proteins were loaded, and western blots were performed as described above.
C57Bl6 male mice received an i.p injection of 0.5 and 1 mg/kg for 1 hour before their brain was carefully removed and their cortex and hippocampus were sub-dissected. […] The level of TrkB phosphorylation at Tyrosine 816 was analyzed by western blot (FIG. 3).

TrkA = TrkA (Homo sapiens, UniProt P04629); settings: PC12-TrkA cells, presence or absence of NGF (2 nM)
Description: (§1) Nnr5 PC12-TrkA and nnr5 PC12-TrkB cells are NGF-nonresponding mutant PC12 cells stably transfected with TrkA and TrkB, respectively. Activation of TrkA and TrkB was assessed in nnr5 PC12-TrkB or -TrkA cells by quantifying the level of phospho-Trk at Tyrosine 706 (Y706) after addition of BDNF (1 nM) or NGF (2 nM), respectively, for 15 min in presence or absence of TB001 at various concentrations (0.1, 10 and […]), as previously done. Activation of downstream signaling pathway was assessed by quantifying phospho-ERK in the same cells. Neurite outgrowth was determined by counting the number the number of cells bearing neurites longer than 2 cells in diameter, 48 hours after initial treatment, as described earlier.
(§2) Selectivity of LIT-TB001 toward signaling activation and biological function was tested in PC12-TrkB or PC12-TrkA cells, in presence of BDNF (TrkB) or NGF (TrkA). Key experiments were recapitulated in either TrkA or TrkB-expressing cells to test for TB selectivity: Trk phosphorylation, ERK phosphorylation and neurite outgrowth (FIG. 1).

PC12-TrkB cells = settings: BDNF, 48 hours
Description: as §1, §2

TrkB [2] = biological target: TrkB (Homo sapiens, UniProt Q16620); settings: PC12-TrkB cells, BDNF 1 nM
Chain of TrkB (Homo sapiens, UniProt Q16620) (Q16620 32-822, species assumed): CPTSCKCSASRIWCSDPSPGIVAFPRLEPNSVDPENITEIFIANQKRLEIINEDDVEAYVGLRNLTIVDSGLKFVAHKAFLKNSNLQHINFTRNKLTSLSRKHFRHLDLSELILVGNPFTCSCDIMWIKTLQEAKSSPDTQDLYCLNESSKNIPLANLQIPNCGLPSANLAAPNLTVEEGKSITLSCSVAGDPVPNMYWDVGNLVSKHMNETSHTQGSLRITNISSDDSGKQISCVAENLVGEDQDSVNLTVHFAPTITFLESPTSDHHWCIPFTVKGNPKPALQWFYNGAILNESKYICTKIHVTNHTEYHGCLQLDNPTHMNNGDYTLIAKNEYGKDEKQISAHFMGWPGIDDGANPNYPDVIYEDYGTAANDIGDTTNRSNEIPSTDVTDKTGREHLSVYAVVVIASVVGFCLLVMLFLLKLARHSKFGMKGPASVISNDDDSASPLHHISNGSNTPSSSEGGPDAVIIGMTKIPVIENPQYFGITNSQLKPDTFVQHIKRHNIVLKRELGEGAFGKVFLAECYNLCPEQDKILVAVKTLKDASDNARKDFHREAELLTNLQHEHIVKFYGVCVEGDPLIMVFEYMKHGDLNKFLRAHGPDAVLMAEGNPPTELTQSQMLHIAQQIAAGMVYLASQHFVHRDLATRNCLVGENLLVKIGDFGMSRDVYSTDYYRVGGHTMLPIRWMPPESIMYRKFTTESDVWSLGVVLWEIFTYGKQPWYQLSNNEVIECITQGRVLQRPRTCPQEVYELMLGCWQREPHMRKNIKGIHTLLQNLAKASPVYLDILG
Description: as §1, §2

TrkB [3] = experiment: TrkB phosphorylation assay: potentiation of BDNF-induced TrkB phosphorylation in cortical neurons; format: cell-based; settings: potentation at a PAM concentration of 10 nM of 0.4 nM BDNF-induced TrkB phosphorylation in cortical neurons
Source text: It is meant by “positive allosteric modulator” (PAM), also known as allosteric enhancer or potentiator, a compound that induces an amplification of the effect of receptor's response to the primary ligand without directly activating the receptor. Within this invention, PAM TrkB activity is related to the potentation of BDNF effects on the functional activity of the TrkB receptor, measured in vitro or in vivo by mean of a specific TrkB receptor phosphorylation assay.
In Vitro Activity of LIT-TB Derivatives in a TrkB Phosphorylation Assay

45 kinases = experiment: Kinome profile (ExpresS Diversity Kinase Panel, TR-FRET LANCE); format: biochemical; settings: 10 μM
Description: FIG. 2 represents the […] inhibition of the catalytic activity of 45 kinases (ExpresS Diversity Kinase Panel, Eurofins Discovey, item # P10) by LIT-TB001 at a concentration of 10 μM. For each kinase, the effect of the compound on the ATP-induced kinase-mediated substrate phosphorylation is measured by the TR-FRET LANCE technology.
A kinome profile was next performed to test LIT-TB001 selectivity toward other kinases.

Chain of TrkA (P04629 33-796, species assumed): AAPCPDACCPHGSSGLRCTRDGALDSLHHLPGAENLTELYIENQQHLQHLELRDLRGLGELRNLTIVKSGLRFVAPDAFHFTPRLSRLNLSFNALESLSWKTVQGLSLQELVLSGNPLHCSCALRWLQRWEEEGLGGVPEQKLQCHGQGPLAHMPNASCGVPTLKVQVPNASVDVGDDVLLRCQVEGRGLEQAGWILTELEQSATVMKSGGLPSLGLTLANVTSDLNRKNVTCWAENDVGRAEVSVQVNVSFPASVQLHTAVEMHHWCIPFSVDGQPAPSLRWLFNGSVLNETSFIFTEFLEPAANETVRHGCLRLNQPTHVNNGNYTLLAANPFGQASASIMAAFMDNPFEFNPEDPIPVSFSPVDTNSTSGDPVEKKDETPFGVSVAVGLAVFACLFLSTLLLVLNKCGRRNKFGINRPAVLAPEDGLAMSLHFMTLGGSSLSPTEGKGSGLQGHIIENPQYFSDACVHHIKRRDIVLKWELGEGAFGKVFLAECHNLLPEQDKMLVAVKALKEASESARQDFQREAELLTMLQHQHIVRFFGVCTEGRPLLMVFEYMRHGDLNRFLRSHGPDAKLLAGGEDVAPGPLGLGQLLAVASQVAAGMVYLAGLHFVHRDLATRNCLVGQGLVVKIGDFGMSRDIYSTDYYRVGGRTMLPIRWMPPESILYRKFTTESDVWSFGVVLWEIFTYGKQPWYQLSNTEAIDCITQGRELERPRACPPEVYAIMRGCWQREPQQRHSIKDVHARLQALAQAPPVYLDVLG
Chain of TrkB (Mus musculus, UniProt P15209) (P15209 32-821): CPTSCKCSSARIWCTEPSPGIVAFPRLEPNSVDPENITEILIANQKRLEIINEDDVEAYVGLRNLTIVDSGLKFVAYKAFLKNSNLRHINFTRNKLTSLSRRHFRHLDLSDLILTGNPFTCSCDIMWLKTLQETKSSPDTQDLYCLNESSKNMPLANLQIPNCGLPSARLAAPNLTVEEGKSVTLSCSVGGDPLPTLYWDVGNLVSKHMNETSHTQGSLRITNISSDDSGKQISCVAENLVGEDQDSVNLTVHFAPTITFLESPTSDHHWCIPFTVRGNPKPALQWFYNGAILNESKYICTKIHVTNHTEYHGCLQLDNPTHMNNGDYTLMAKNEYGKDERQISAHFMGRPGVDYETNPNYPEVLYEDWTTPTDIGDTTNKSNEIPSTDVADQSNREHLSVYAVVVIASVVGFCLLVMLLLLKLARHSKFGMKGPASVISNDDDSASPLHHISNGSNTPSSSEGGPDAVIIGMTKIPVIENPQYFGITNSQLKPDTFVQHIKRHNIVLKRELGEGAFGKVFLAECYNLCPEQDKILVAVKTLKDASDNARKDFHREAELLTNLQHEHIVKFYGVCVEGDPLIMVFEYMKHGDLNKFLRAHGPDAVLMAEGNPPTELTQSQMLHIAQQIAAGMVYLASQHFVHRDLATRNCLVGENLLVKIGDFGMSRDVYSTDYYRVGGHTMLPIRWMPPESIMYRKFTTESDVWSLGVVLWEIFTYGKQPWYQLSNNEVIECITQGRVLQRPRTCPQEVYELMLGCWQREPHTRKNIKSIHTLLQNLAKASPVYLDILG

CN1CCN(c2ccc3nnc(CCC(=O)NC4CCN(Cc5ccccc5)CC4)n3n2)CC1 [LIT-TB001, N-(1-benzylpiperidin-4-yl)-3-[6-(4-methylpiperazin-1-yl)-[1,2,4]triazolo[4,3-b]pyridazin-3-yl] propanamide]
TrkB activation (phospho-TrkB/total TrkB) in the brain (TrkB [1]): efficiently increases TrkB activation in the brain | phosphorylation of ERK (TrkA): did not induce phosphorylation of ERK or TrkA | phosphorylation of TrkA (TrkA): did not induce phosphorylation of ERK or TrkA | neurite outgrowth (PC12-TrkB cells): potentiates BDNF- | phosphorylation of ERK (TrkB [2]): induced only in the presence of BDNF | phosphorylation of TrkB (TrkB [2]; 15 min): induced only in the presence of BDNF | PAM TrkB activity (TrkB [3]): +++ (+++: >35%) | effect on catalytic activity of 45 kinases (among them TrkA) (45 kinases): does not activate neither block the catalytic activity of the tested kinases

CN1CCN(c2ccc3nnc(CCC(=O)N[C@H]4CCN(Cc5ccccc5)C[C@@H]4F)n3n2)CC1 [LIT-TB048, N-[(3S,4S)-1-benzyl-3-fluoropiperidin-4-yl]-3-[6-(4-methylpiperazin-1-yl)-[1,2,4]triazolo[4,3-b]pyridazin-3-yl]propanamide]
PAM TrkB activity (TrkB [3]): +++ (+++: >35%)

CN1CCN(c2ccc3nnc(CCC(=O)N[C@@H]4CCN(Cc5ccccc5)C[C@H]4F)n3n2)CC1 [LIT-TB049, N-[(3R,4R)-1-benzyl-3-fluoropiperidin-4-yl]-3-[6-(4-methylpiperazin-1-yl)-[1,2,4]triazolo[4,3-b]pyridazin-3-yl]propanamide]
PAM TrkB activity (TrkB [3]): +++ (+++: >35%)

COc1ccc(CN2CC[C@H](NC(=O)CCc3nnc4ccc(N5CCN(C)CC5)nn34)[C@@H](F)C2)cc1 [LIT-TB052, N-[(3S,4S)-3-fluoro-1-[(4-methoxyphenyl)methyl]piperidin-4-yl]-3-[6-(4-methylpiperazin-1-yl)-[1,2,4]triazolo[4,3-b]pyridazin-3-yl]propanamide]
PAM TrkB activity (TrkB [3]): +++ (+++: >35%)

COc1ccc(CN2CC[C@@H](NC(=O)CCc3nnc4ccc(N5CCN(C)CC5)nn34)[C@H](F)C2)cc1 [LIT-TB053, N-[(3R,4R)-3-fluoro-1-[(4-methoxyphenyl)methyl]piperidin-4-yl]-3-[6-(4-methylpiperazin-1-yl)-[1,2,4]triazolo[4,3-b]pyridazin-3-yl]propanamide]
PAM TrkB activity (TrkB [3]): ++ (++: 20-35%)
